Assay results taken from patent US20120329158A1, “Methods of Plant Regeneration and Apparatus Therefor” (priority 2010, published 2012).

Tested on: sugarcane artificial seeds (Q208 and KQ228)
Assay: Germination and conversion of sugarcane artificial seeds into plantlets in liquid MS medium with or without auxins
Conditions: MS medium supplemented with small amounts of auxin; varieties Q208 and KQ228 (FIG. 34)
Description: Thirty-six artificial plant seeds (approx 15 mL) were placed into a sterile 250 mL Erlenmeyer flask with 85 mL of sterile MS liquid with 30 gL^−1 sucrose. Flasks were placed on the gyratory shaker trays at 120 rpm, 27° C.±1° C., and a 16 h photoperiod provided by cool white fluorescent tubes for 2-3 weeks. The media was decanted off and replaced every 3-4 days.
In this medium the artificial plant seeds germinated and produced normal plantlets within 3 weeks (FIG. 5). The seeds change from a transparent gel bead to a brown-black colour within the first few days of being placed into liquid culture. Within 7-10 days there is shoot production from the seeds and within two weeks the shoots are elongating and root production outside of the artificial plant seed begins. Within 3 weeks the plantlet has fully developed, with both extensive shoot and root production, outside of the gel. Variations in the rate of plantlet emergence are to be expected with different genotypes (FIG. 6 and FIG. 7). Typical growth conditions for liquid culture are 120 rpm and 27° C. with a 16 hour photoperiod.
In general, plantlets produced with growth regulators were stunted if hormone levels were 1 μM compared to those obtained from growth regulator-tee MS medium. As such, MS is typically used for the liquid culture medium. Regeneration of artificial plant seeds into plantlets at a rate of 70-90% is achievable. […]

O=C(O)CCCc1c[nH]c2ccccc12 [indole-3 butyric acid (IBA), indole-3-butyric acid]
conversion of artificial seeds to plantlets: improved conversion of seeds to plantlets

O=C(O)Cc1cccc2ccccc12 [α-naphthaleneacetic acid (NAA), α-naphthaleneacetic acid]
conversion of artificial seeds to plantlets: improved conversion of seeds to plantlets
